{"source": "patent US20120322060A1", "about": "“DIAGNOSIS AND MONITORING TREATMENT OF PSYCHIATRIC DISEASES WITH SPADIN AND RELATED METHODS” (CENTRE NATIONAL DE LE RECHERCHE SCIENTIFIQUE - CNRS -, priority 2011, published 2012)", "key": {"mice [1]": {"tested_on": "mice", "assay": "Porsolt Forced Swim Test (FST) in mice", "assay_type": "in vivo, mouse", "experimental": "Mice (Janvier, France) were placed individually in cylinders (height: 30 cm, diameter: 15 cm) filled with 12 cm deep water (temperature: 22±1° C.) for 6 min. The total period of immobility was recorded during the last 4 min."}, "mice [2]": {"tested_on": "mice", "assay": "Corticosterone assay after tube restraint stress", "assay_type": "in vivo, mouse", "conditions": "30 min after 10 min tube restraint; spadin i.p. 10^-5 M", "experimental": "Mice were individually housed for at least 12 hours before blood sample collection. Serum samples, collected in the morning were obtained by retroorbital puncture before and 30 min after the end of a 10-min tube restraint. Levels of corticosterone were measured by radioimmunoassay using a commercially available kit (MP Biomedicals)."}, "TREK-1 [3]": {"molecular_target": "T1, TREK-1 (Mus musculus, UniProt P97438)", "T1 sequence (P97438 1-426)": "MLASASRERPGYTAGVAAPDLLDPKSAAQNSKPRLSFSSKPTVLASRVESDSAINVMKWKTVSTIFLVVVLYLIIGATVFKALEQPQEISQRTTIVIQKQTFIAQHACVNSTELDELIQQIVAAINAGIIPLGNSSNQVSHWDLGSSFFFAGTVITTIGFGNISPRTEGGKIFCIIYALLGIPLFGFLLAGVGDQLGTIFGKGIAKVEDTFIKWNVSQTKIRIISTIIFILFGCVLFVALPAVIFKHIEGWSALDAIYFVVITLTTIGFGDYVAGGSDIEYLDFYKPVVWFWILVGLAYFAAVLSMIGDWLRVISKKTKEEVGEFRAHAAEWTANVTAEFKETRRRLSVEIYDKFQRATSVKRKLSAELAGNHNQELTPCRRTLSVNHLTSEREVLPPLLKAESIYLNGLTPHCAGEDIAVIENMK", "assay": "Whole-cell patch-clamp on CA3 pyramidal neurons in hippocampus brain slices", "assay_type": "cell-based", "parameters": "a cellular network that endogenously expresses both TREK-1 and NTSR3/Sortilin; from tissue; host or cells: mouse hippocampal brain slices, CA3 pyramidal neurons", "conditions": "wild-type CA3 neurons, no aa"}, "mice [4]": {"tested_on": "mice", "assay": "Novelty-Suppressed Feeding test (NSF)", "assay_type": "in vivo, mouse", "conditions": "4 days; spadin i.v. 10^-6 M, fluoxetine i.p. 3 mg/kg", "experimental": "NSF paradigm is a conflict test that elicits competing motivations: the drive to eat and the fear of venturing into the center of a bright arena. Latency to begin eating is used as an index of anxiety- and depression-like behavior. After 4 day treatment (saline or spadin, i.v.) and 24 hours food-deprivation, mice were presented with a food pellet placed in the center of a brightly plastic box (50×50×20 cm). Latency to begin eating was measured as previously described."}, "TREK-1 [5]": {"molecular_target": "T1, TREK-1", "assay": "Whole-cell patch-clamp on cultured pyramidal neurons from hippocampus", "assay_type": "cell-based", "parameters": "endogenous in cells; host or cells: primary hippocampal pyramidal neurons from newborn mice", "conditions": "20 μM fluoxetine", "experimental": "A, Cultured pyramidal neuron from hippocampus, with on top, the patch-clamp pipette. Neurons were chosen according to their morphology. B, Current recorded in response to ramps of potential obtained in the various conditions indicated (aa: arachidonic acid: 10 μM, Spadin: 1[…]μM, Fluoxetine: 20 μM). Neurons were recorded in the whole-cell configuration of the patch-clamp technique. In voltage-clamp, ramps of potential from −90 mV to 70 mV were applied every 10 sec. The % variation of the current amplitude was always measured at −50 mV. The currents were recorded in response to such ramps in control conditions and in the presence of a cocktail of potassium blockers suitable to isolate the TREK currents (10 mM tetraethyl ammonium (TEA), 3 mM 4-aminopyridine (4-AP), 50 nM charybdotoxin, 10 μM glibenclamide, 100 nM apamin). […] The blocks were reversible. C, Time course of spadin and fluoxetine effects. Applications are indicated by the horizontal bars.\nCortical neurons were prepared from 14 old mouse embryos whereas hippocampal neurons were prepared from new born mice. Briefly, dissected brain areas were dissociated and neurons were plated on polylysine-treated 35 or 60 mm dishes and maintained in culture in Neurobasal medium supplemented with B27, Glutamax and antibiotics for 2 to 3 weeks before to be used for electrophsysiological or biochemical experiments."}, "[6]": {"tested_on": "dentate gyrus of the mouse hippocampus", "assay": "Hippocampal neurogenesis (BrdU / DCX labeling)", "assay_type": "in vivo", "experimental": "Twenty-four hours after the injection of BrdU (120 mg per kg of body weight in a 300 μl bolus), mice were euthanized and transcardially perfused with 4% cold paraformaldehyde. Serial sections of the brains were cut (40 μm) throughout the entire hippocampus on a vibratome (Leica). Every sixth section throughout the hippocampus was processed for BrdU or doublecortin (DCX) immunohistochemistry, as previously described. For each immunodetection, slides were first incubated overnight at 4° C. with a mouse monoclonal anti-BrdU antibody (1:200; Becton-Dickinson) or a goat anti-DCX (1:400, Santa Cruz Laboratories). For chromogenic immunodetection, sections were then incubated for 1 hour in biotin-conjugated species-specific secondary antibodies (1:100; Vector Laboratories) followed by a peroxidase-avidin complex solution according to the manufacturer's protocol. The peroxidase activity of immune complexes was visualized with DAB staining using the VectaStain ABC kit (Vector Laboratories). For fluorescent double-labeling, performed to determine the cell phenotype, sections were incubated overnight at 4° C. with anti-sheep BrdU (1:200, Interchim), anti-goat DCX (1:200, Santa Cruz Laboratories), or an anti-GFAP (Glial Fibrillary acidic protein, marker for astrocytes, 1:250, Dako). […] All BrdU-labeled cells in the granular cell layer and subgranular zone (SGZ) were counted in each section (n=10 and 5 mice per group) at 400× and 1000× magnification under a light microscope (Olympus) by an experimenter blinded to the study code. The total number of BrdU-positive cells per section was multiplied by 6 to obtain the total number of cells per dentate gyrus. The counting of BrdU/DCX labeled cells was performed using a Laser Scanning Confocal Microscope (TCS SP, Leica) equipped with a DMIRBE inverted microscope."}, "mice [7]": {"tested_on": "mice", "assay": "Tail Suspension Test (TST)", "assay_type": "in vivo, mouse", "conditions": "subchronic, 4 days; spadin i.v. 10^-6 M, fluoxetine 3 mg/kg", "experimental": "Mice were suspended by the tail. […] The immobility time was recorded during a 6 min test session."}, "TREK-1 [8]": {"molecular_target": "T1, TREK-1", "assay": "Whole-cell patch-clamp on TREK-1 transfected COS-7 cells", "assay_type": "cell-based", "parameters": "GFP; expressed in transfected cells; host or cells: COS-7 (DEAE-dextran transfection)", "conditions": "after 90 sec of application", "experimental": "All electrophysiological experiments were done on COS-7 cells seeded at a density of 20,000 cells/35-mm dish 24 h before transfection. Cells were transfected by the classical DEAE-dextran method with TREK-1-GFP plasmids (0.1 μg/μL). Cells were visualized 48-72 h after transfection using fluorescence.\nThe whole-cell patch-clamp technique was used to evaluate TREK-1 potassium channel current by using a RK 400 patch-clamp amplifier (Axon Instruments, U.S.A.), as previously described. Currents were lowpass filtered at 3 kHz, digitized at 10 kHz using a 12-bit analog-to-digital converter. […] The bath solution contained (in mM): 150 NaCl, 5 KCl, 3 MgCl2, 1 CaCl2, and 10 HEPES, adjusted to pH 7.4 with NaOH; the patch pipette solution contained (in mM): 155 KCl, 3 MgCl2, 5 EGTA, and 10 HEPES, adjusted to pH 7.2 with KOH. Cells were clamped at −80 mV and voltage changes were either applied by ramp (from −100 to 50 mV, 1 s in duration) or by step (from −100 to 40 mV, 1.5 s in duration). Cells were continuously superfused with a microperfusion system. The pipette capacitance was not subtracted from total membrane capacitance and there was no leak substraction. All experiments were done at room temperature (21° C. to 22° C.) and in the presence of a cocktail of potassium channel inhibitors (K^+ blockers: 10 mM tetraethyl ammonium (TEA), 3 mM 4-aminopyridine (4-AP), 50 nM charybdotoxin, 10 μM glibenclamide, 100 nM apamin).\nPclamp software was used to analyze currents recorded in the whole-cell mode measured at 0 mV. Results are expressed as means±SD. To obtain the IC50 value for dose-dependent inhibition, experimental data were fitted with a standard sigmoidal function."}, "TREK-1 [9]": {"molecular_target": "T1, TREK-1", "assay": "Competition with 125I-spadin for binding to TREK-1 transfected COS-7 cell homogenates", "parameters": "expressed in transfected cells; host or cells: COS-7 (DEAE-dextran transfection)", "conditions": "TREK-1 transfected COS-7 homogenates, read-out: affinity for TREK-1", "method": "Experiments were performed using COS-7 cells (10^6 cells per diameter 100 dish) transfected with TREK-1 (2 μg/dish) in the presence or in the absence of NTSR3/sortilin (2 μg/dish) using the DEAE-dextran protocol.\nIncubations were terminated by addition of 2 ml of ice-cold binding buffer followed by filtration through cellulose acetate filters (Sartorius, Göttingen, Germany) and washing twice with 2 ml of ice-cold buffer. Radioactivity on filters was counted with a gamma-counter."}, "[10]": {"molecular_target": "TREK-1 channel (expressed by transfection in COS-7 cells)", "sequence (O95069 whole entry)": "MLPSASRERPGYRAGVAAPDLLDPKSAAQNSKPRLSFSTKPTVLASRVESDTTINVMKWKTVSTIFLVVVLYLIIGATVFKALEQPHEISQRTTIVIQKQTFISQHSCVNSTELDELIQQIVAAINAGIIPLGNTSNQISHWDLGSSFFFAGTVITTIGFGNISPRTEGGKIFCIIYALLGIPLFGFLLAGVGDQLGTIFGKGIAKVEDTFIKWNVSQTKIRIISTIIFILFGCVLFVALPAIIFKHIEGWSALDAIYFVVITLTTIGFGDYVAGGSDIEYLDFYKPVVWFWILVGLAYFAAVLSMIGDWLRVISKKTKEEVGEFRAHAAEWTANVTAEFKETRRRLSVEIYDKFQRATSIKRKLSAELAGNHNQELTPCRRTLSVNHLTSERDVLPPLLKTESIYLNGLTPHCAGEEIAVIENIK", "assay": "cell-based or functional assay"}, "[11]": {"molecular_target": "NTSR3/Sortilin (endogenous, C13NJ microglial cell line)", "sequence (Q99523 78-831)": "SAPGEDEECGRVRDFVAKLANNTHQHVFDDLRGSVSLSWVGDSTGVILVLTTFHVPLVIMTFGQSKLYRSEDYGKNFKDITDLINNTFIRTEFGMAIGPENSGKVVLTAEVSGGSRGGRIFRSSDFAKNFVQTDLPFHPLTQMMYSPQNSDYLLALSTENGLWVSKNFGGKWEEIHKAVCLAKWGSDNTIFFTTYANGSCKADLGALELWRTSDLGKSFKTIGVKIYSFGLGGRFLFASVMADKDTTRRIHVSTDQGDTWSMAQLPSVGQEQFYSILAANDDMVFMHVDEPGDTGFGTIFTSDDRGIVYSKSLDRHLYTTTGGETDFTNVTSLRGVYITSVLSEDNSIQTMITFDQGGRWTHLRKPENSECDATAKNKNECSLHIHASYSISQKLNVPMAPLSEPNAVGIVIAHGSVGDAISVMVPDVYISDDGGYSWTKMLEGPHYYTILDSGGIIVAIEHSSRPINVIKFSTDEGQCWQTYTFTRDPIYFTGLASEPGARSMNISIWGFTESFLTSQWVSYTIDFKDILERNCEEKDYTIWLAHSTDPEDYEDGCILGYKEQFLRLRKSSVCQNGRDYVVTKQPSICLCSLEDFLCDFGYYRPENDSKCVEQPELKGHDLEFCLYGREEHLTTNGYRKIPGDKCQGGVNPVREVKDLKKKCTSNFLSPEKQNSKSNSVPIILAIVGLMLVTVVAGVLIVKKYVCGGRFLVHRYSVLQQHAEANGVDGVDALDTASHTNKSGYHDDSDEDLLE", "assay": "cell-based or functional assay"}, "[12]": {"molecular_target": "NTSR3/Sortilin (endogenous, C13NJ microglial cell line)", "assay": "competition with 0.2 nM 125I-NT on C13NJ cell homogenates, filtration"}, "[13]": {"molecular_target": "TREK-1 channel (expressed by transfection in COS-7 cells)", "assay": "competition with 0.2 nM 125I-spadin on TREK-1 transfected COS-7 cell homogenates, filtration"}}, "note": "Entries after “also recorded” stand apart in the source; their conditions may differ. No end group written: not given here.", "data": [{"molecule": "CNCCC(Oc1ccc(C(F)(F)F)cc1)c1ccccc1", "note": "(stereo not shown) [fluoxetine, Fluoxetine, reference compound]", "values": [{"measurement": "reduction of time of immobility", "setting": "mice [1]; chronic, 15 days, spadin 10^-6 M, fluoxetine 1 mg/kg", "value": "around 30%"}, {"measurement": "reduction of time spent immobile", "setting": "mice [1]; subchronic, 4 days, spadin i.v. 10^-6 M, fluoxetine 3 mg/kg", "value": "had no effect; also recorded: without effect"}, {"measurement": "reduction of stress-induced increase in corticosterone levels versus saline", "setting": "mice [2]", "value": 59.1, "unit": "%"}, {"measurement": "inhibition of the current recorded in presence of potassium blockers, substance alone", "setting": "TREK-1 [3]", "value": "13.0 ± 3.8", "unit": "%"}, {"measurement": "latency to feed versus saline", "setting": "mice [4]", "value": "had no effect"}, {"measurement": "block of arachidonic acid evoked current (putative TREK current)", "setting": "TREK-1 [5]", "value": "fully blocked"}, {"measurement": "number of BrdU-positive cells in the SGZ versus saline", "setting": "[6]; 4-day treatment, spadin i.p. 10^-5 M", "value": "had no effect"}, {"measurement": "number of BrdU-positive cells versus saline", "setting": "[6]; 15 days", "value": "significant increase"}, {"measurement": "reduction of time spent immobile", "setting": "mice [7]", "value": "had no effect; also recorded: without effect"}]}, {"molecule": "QDRLDAPPPPAAPLPR [N-terminal fragment Gln1-Arg16, reference compound]", "values": [{"measurement": "inhibition of current increase induced by 10 μM aa", "setting": "TREK-1 [8]", "value": "unable to inhibit"}, {"measurement": "Kd", "setting": "TREK-1 [9]", "value": 1000, "unit": "nM"}]}, {"molecule": "APLPRWSGPIGVSWGLR", "note": "[spadin]", "values": [{"measurement": "IC50 of dose-dependent inhibition of TREK-1 current at 0 mV", "setting": "[10]", "value": 70.7, "unit": "nM"}, {"measurement": "block of arachidonic acid-stimulated TREK-1 current (whole-cell patch clamp, transfected COS-7 cells, 100 nM spadin)", "setting": "[10]", "value": 63, "unit": "%"}, {"measurement": "C13NJ cell migration induced by 10 nM NT in the presence of 1 µM spadin (% of migration with 10% FCS)", "setting": "[11]", "value": 6.2, "unit": "%"}, {"measurement": "affinity", "setting": "[12]", "value": 8, "unit": "nM"}, {"measurement": "affinity", "setting": "[13]", "value": 10, "unit": "nM"}]}]}
